# Data from US11040035B2, “3-oxo-2,6-diphenyl-2,3-dihydropyridazine-4-carboxamides” (BAYER PHARMA AKTIENGESELLSCHAFT, priority 2016, dated 2021).
# Where two headings read alike, the source gives them in different places.
# Tests used:
# [1] = biological target: T1, AHR (Homo sapiens, UniProt P35869); experiment: In vitro assay 2: agonism in human cell line (transactivation assay)
# T1 sequence (P35869 11-848): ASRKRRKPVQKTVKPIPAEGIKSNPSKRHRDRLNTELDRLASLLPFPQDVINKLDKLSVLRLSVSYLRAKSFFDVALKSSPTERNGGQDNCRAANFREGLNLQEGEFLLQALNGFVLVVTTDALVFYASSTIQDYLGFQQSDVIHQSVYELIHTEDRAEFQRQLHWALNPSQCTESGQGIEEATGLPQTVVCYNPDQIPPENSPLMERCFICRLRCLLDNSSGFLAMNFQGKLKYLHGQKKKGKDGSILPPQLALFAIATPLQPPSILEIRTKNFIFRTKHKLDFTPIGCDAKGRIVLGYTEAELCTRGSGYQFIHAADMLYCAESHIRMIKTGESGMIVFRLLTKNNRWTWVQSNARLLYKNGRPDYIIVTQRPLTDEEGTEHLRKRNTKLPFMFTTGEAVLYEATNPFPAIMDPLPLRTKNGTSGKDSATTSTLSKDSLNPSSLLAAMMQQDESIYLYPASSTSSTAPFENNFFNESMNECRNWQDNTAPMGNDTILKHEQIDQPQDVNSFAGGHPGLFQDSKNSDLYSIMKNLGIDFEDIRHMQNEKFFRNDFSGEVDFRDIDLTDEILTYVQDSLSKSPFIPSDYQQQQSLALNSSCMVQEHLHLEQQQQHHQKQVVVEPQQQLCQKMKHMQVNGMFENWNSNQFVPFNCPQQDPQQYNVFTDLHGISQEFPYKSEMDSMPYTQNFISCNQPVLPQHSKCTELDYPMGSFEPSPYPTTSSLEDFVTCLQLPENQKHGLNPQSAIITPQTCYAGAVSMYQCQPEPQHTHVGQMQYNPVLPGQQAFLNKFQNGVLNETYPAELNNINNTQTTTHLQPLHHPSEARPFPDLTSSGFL
# Description: Transactivation Assay in Human Cell Line (In Vitro Assays 1 and 2)
# Transactivation assays were carried out in U87 glioblastoma cells (ATCC) endogenously expressing AHR. In addition the cells were stably transfected with an AHR inducible firefly luciferase reporter gene construct that carried AHR-binding sites (DRE) in its promoter and a renilla reporter gene construct with constitutively active promoter.
# In Vitro Assay 2: Agonism in Human Cell Line
# Cells in medium (tryptophan free RPMI, 1% FCS, 2 mM Glutamine) were grown for 20 hours in absence (negative control) or presence of increasing concentrations of test compounds (typical dilutions: 72 pmol/L, 0.25 nmol/L, 0.89 nmol/L; 3.1 nmol/L, 11 nmol/L, 38 nmol/L, 130 nmol/L, 470 nmol/L, 1.6 μmol/L, 5.7 μmol/L and 20 μmol/L in duplicates). As positive activation control cells were incubated with 300 μM kynurenic acid. Normalization was done by positive and negative controls.
# Firefly luciferase activity was determined by the SteadyGlo Luciferase Assay System (Promega, #2520).
# [2] = system: AHR-regulated gene CYP1A1; experiment: In vitro assay 3: AHR-regulated CYP1A1 expression in human cell line (U937, qPCR)
# [3] = biological target: T1, AHR; experiment: In vitro assay 1: antagonism in human cell line (transactivation assay, kynurenic acid prestimulated); conditions: Assay 1: AHR-luc Hum Antagonism IC50 [M], 150 μM kynurenic acid, 20 hours, firefly luciferase
# [4] = Assay 2: AHR-luc Hum Agonism IC50 [M], no kynurenic acid, 20 hours, firefly luciferase
# [5] = Homo sapiens, U-937, 6 h, read-out: Assay 3: Hum CYP1A1 Antagonism IC50 [M], U937 cells, 200 μM KA, 6 hours, qPCR
# [6] = read-out: Assay 3: Hum CYP1A1 Antagonism IC50, U937 cells, 200 μM KA, 6 hours, qPCR
"IC50 [1, 4] [M]","IC50 [2, 5] [M]",IC50 [3] [M],"IC50 ([1]; read-out: Assay 2: AHR-luc Hum Agonism IC50, no kynurenic acid, 20 hours, firefly luciferase) [M]","IC50 [2, 6] [M]",SMILES
> 2e-05,9.77e-08,3.63e-08,,,"O=C(N[C@H]1CCC[C@@H]1O)c1cc(-c2ccc(Cl)cc2)nn(-c2cccc(F)c2)c1=O (relative stereo) [Example 123, 6-(4-Chlorophenyl)-2-(3-fluorophenyl)-N-(trans-2-hydroxycyclopentyl)-3-oxo-2,3-dihydropyridazine-4-carboxamide]"
> 2e-05,1.49e-08,1.34e-08,,,"CC(O)C(NC(=O)c1cc(-c2ccc(Cl)cc2)nn(-c2cccc(F)c2)c1=O)C(F)(F)F (single isomer, unassigned) [Example 198, 6-(4-chlorophenyl)-2-(3-fluorophenyl)-3-oxo-N-(1,1,1-trifluoro-3-hydroxybutan-2-yl)-2,3-dihydropyridazine-4-carboxamide]"
> 2e-05,5.69e-08,1.63e-08,,,"N#CC(CO)NC(=O)c1cc(-c2ccc(Cl)cc2)nn(-c2cccc(F)c2)c1=O (racemic) [Example 371, 6-(4-chlorophenyl)-N-[(1RS)-1-cyano-2-hydroxyethyl]-2-(3-fluorophenyl)-3-oxo-2,3-dihydropyridazine-4-carboxamide]"
> 2e-05,3.62e-08,2.89e-08,,,"CC(CCO)NC(=O)c1cc(-c2ccc(C(F)(F)F)cc2)nn(-c2cccc(F)c2)c1=O (racemic) [Example 253, 2-(3-Fluorophenyl)-N-[(2RS)-4-hydroxybutan-2-yl]-3-oxo-6-[4-(trifluoromethyl)phenyl]-2,3-dihydropyridazine-4-carboxamide]"
> 2e-05,3.2e-08,2.43e-08,,,"O=C(NC(CO)CF)c1cc(-c2ccc(Cl)cc2)nn(-c2cccc(F)c2)c1=O (racemic) [Example 323, 6-(4-chlorophenyl)-N-[(2RS)-1-fluoro-3-hydroxypropan-2-yl]-2-(3-fluorophenyl)-3-oxo-2,3-dihydropyridazine-4-carboxamide]"
> 2e-05,1.75e-07,1.06e-07,,,"CC[C@@H](CO)NC(=O)c1cc(-c2ccc(Cl)c(Cl)c2)nn(-c2cccc(F)c2)c1=O [Example 306, 6-(3,4-Dichlorophenyl)-2-(3-fluorophenyl)-N-[(2S)-1-hydroxybutan-2-yl]-3-oxo-2,3-dihydropyridazine-4-carboxamide]"

# Further lines, the compound ahead of its results:
SMILES,"IC50 [1, 4] [M]","IC50 [2, 5] [M]",IC50 [3] [M],"IC50 ([1]; read-out: Assay 2: AHR-luc Hum Agonism IC50, no kynurenic acid, 20 hours, firefly luciferase) [M]","IC50 [2, 6] [M]"
"CC(C)C(O)CNC(=O)c1cc(-c2ccc(Cl)cc2)nn(-c2cccc(F)c2)c1=O (single isomer, unassigned) [Example 30, 6-(4-Chlorophenyl)-2-(3-fluorophenyl)-N-(2-hydroxy-3-methylbutyl]-3-oxo-2,3-dihydropyridazine-4-carboxamide]",,,1.33e-07,> 2e-05,1.77e-07
"COc1ccc(-c2cc(C(=O)NC(CO)C(F)(F)F)c(=O)n(-c3cccc(F)c3)n2)cc1 (single isomer, unassigned) [Example 101, 2-(3-fluorophenyl)-6-(4-methoxyphenyl)-3-oxo-N-(1,1,1-trifluoro-3-hydroxypropan-2-yl)-2,3-dihydropyridazine-4-carboxamide]",> 2e-05,,1.24e-08,,1.88e-08
"CC(C)C(O)CNC(=O)c1cc(-c2ccc(Cl)cc2)nn(-c2cccc(F)c2)c1=O (single isomer, unassigned) [Example 29, 6-(4-Chlorophenyl)-2-(3-fluorophenyl)-N-(2-hydroxy-3-methylbutyl]-3-oxo-2,3-dihydropyridazine-4-carboxamide]",> 2e-05,1.55e-07,9.15e-08,,
"CC(C)C[C@@H](CO)NC(=O)c1cc(-c2ccc(Cl)cc2)nn(-c2cccc(F)c2)c1=O [Example 37, 6-(4-Chlorophenyl)-2-(3-fluorophenyl)-N-[(2S)-1-hydroxy-4-methylpentan-2-yl]-3-oxo-2,3-dihydropyridazine-4-carboxamide]",> 2e-05,1.56e-07,1.31e-07,,
